Test results as given in patent US20030198659A1, “Fibrous pest control” (priority 2001, published 2003).

How the values were obtained:
D. radicum = assay: Fibers+optical brightener/cabbage maggot field-cage experiment; type: in vivo, Delia radicum; conditions: rate 0.033 kg ai/100-m row
Description: Fibers+optical brightener/cabbage maggot field-cage experiment. Optical (fluorescent) brighteners are widely used in paints, fabrics, plastics and detergents, wherein they enhance the apparent brightness of the material by absorbing UV radiation and emitting light in the blue visual spectrum (Martinez et al. 2000). These brighteners were feasible to use with our existing technology and could potentially increase fiber effectiveness. Thus in mid-May 2000, we tested the efficacy of optical brighteners added to EVA fibers against cabbage maggots in four large (3.7×3.7×1.8-m) Lumite® field cages. The experiment was a randomized complete block design with four replicates (cages).
Within each cage, six rows (3-m long) were formed about 0.3-m apart by hand plowing. Greenhouse-grown two-leaf stage broccoli cv ‘Southern Comet’ was transplanted into the 6 rows within each cage at a plant spacing of 15 cm. One row of broccoli represented a single treatment within each cage. […]
On May 21 , approximately 175 D. radicum pupae were released into each of the four cages and 10% sucrose solution was provided as a food source for emerging adults. […] Total number of larvae and pupae per plant was recorded.

Silverleaf Whiteflies = assay: Greenhouse no choice oviposition of whiteflies on squash; type: in vivo, Bemisia argentifolii; conditions: spun sucrose trial
Experimental: Whiteflies were tested with a “No Choice” protocol using single treated and untreated summer squash plants var. “Seneca.” Two liter, polyethylene soda container arenas holding a single squash plant in a potting soil mixture were used for whitefly studies. Ten mating pairs of whiteflies were introduced into each arena for all studies. Up to forty arenas, depending on the treatment parameters of a given trial, were run simultaneously under identical ambient conditions. Ambient temperature and time of day were tracked during greenhouse trials. […] Counts were made using a binocular dissecting scope. […] While EVA, graphite and PVA fibers were relatively stable in greenhouse studies, the sucrose fibers were quickly degraded by moisture and formed a sugar coating of the leafs surface with numerous raised and stable sugar droplets. This was an expected result and the efficacy of this fiber application was worthy of testing.

| SMILES | D. radicum larvae per 3-m row of broccoli (D. radicum) | Total # of eggs (total mean number of eggs/plant) (Silverleaf Whiteflies) | Total # of eggs (total mean number of eggs/plant) (Silverleaf Whiteflies; listed as sucrose) |
| --- | --- | --- | --- |
| CCOP(=S)(OCC)Oc1nc(Cl)c(Cl)cc1Cl [Chlorpyrifos drench, chlorpyrifos] | 6.0 ± 2.3 |  |  |
| OC[C@H]1O[C@@](CO)(O[C@H]2O[C@H](CO)[C@@H](O)[C@H](O)[C@H]2O)[C@@H](O)[C@@H]1O [Sugar, sucrose] |  | 5.867 | 5.87±1.96 |
